# From patent US20250276955A1, “CORONAVIRUS MAIN PROTEASE INHIBITORS AND METHODS USING SAME” (Baylor College of Medicine, priority 2021, published 2025)
# Entries after “also recorded” stand apart in the source; their conditions may differ. Where two headings read alike, the source gives them in different places.
# Legend:
# Human Cathepsin B = target: T1, Human Cathepsin B (Homo sapiens, UniProt P07858); assay: Cathepsin B assay; assay type: biochemical
# T1 construct: purchased BPS Bioscience 79590
# Procedure: A kit from BPS Bioscience (#79590) was used with adjustments to the manufacturer's protocol as follows: The activated enzyme was diluted 250-fold just before use, and the reaction was run at RT in black 96 half-area plates in a total reaction volume of 50 uL containing 0.01% Tween-20. Instead of measuring endpoints at 60 min the increase in fluorescence (Ex 360 nm, Em 460 nm) per second (RFU/s) was obtained from linear progress curves over 10 min. Fractional activities were calculated from reactions with no inhibitors. E-64 was used as a positive control.
# [1] = target: SARS-COV-2 M^pro (authentic N- and C-termini) (Severe acute respiratory syndrome coronavirus 2, UniProt P0DTD1); assay: biochemical; assay type: biochemical
# HOVPro-Gi.1 = target: T2, HOVPro-Gi.1 (Norovirus, UniProt Q83883); assay: Thermal shift, HOVPro-Gi.1; assay type: binding
# T2 construct: HOVPro-Gi.1
# [2] = Metabolic stability in human liver microsomes; assay type: in vitro ADME
# In short: (§1)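 Mouse or human liver microsomal incubations sampled in duplicate at 0, 30 and 60 min, quenched with equal volume ice-cold methanol. Supernatant analysed by UHPLC-Orbitrap MS, C18 column at 40° C, positive ESI, m/z 80–1,200.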
# [3] = Metabolic stability in mouse liver microsomes; assay type: in vitro ADME
# In short: as §1
# HepG2 cells [4] = assay: HepG2 cytotoxicity assay (XTT)
# [5] = Apparent solubility in PBS buffer; conditions: PBS buffer with 2% DMSO, aqueous buffer, kinetic from dmso stock
# [6] = target: SARS-CoV-2 main protease (M^pro) (Severe acute respiratory syndrome coronavirus 2, UniProt P0DTD1); assay: Protein thermal shift stability assay (SYPRO Orange); assay type: binding
# [7] = Plasma stability assay, human plasma; assay type: in vitro ADME; conditions: 10 μM, 37° C., after 2 h incubation
# Procedure: (§2) Compound CDD-1713 and CDD-1976 were incubated in human and mouse plasma respectively at a concentration of 10 μM in duplicate (n=2) at 37° C. At time-points of 0, 30, 60 and 120 min, 15 μL of sample were taken out and the reactions terminated by adding 75 μL of ice-cold methanol. The reaction mixtures were then vortexed for 30 sec and centrifuged at rcf 15,000 for 15 min. Following centrifugation, 3 μL of the supernatant was analyzed using UHPLC-Q Exactive Orbitrap MS. The percentage of test compound remaining at the individual time points relative to the 0 min sample was then determined.
# HOVPro-Gii.4 = assay: Thermal shift, HOVPro-Gii.4; assay type: binding
# HepG2 cells [8] = assay: HepG2 cell uptake assay; assay type: in vitro ADME; conditions: 10 μM, 2 hours
# Procedure: The HepG2 cells maintained in DMEM (containing 1 g/L glucose, 10% fetal bovine serum and 1% penicillin/streptomycin) were seeded in a 12-well plate (a final density of 5×10^5/well) for cell uptake assay and 96-well plate for cytotoxicity assay (a final density of 5×10^4/well). The plate was incubated at 37° C. for 24 h.
# The cells in 12-well plate were treated with CDD-1713 or CDD-1976 (final concentration: 10 μM). The plate was incubated at 37° C. for another 2 hr. The medium in the plate was decanted and the cells were rinsed with 1 mL of 1×DPBS for three times. 0.5 mL of 0.25% Trypsin was added into each well and incubated for 3.5 min (at 37° C.). 1 mL of complete medium was added into each well to quench the reaction. After spinning at 350×g for 5 min, the cell pellet was reconstituted in MeOH/H2O (v/v 1/1) and CDD-1713 or CDD-1976 was extracted from 100 μL of the resulting mixture with 100 μL of ice-cold methanol. The mixtures were centrifuged at rcf 15,000 for 15 min. Three μL of the supernatant was analyzed by UHPLC-Q Exactive Orbitrap MS (Thermo Fisher Scientific, USA) equipped with 50 mm×4.6 mm column (XDB C-18, Agilent Technologies, USA). The column temperature was set at 40° C. Ultra-pure nitrogen was applied as the sheath (45 arbitrary unit), auxiliary (10 arbitrary unit), sweep (1.0 arbitrary unit) and the collision gas. […]
# [9] = Plasma stability assay, mouse plasma; assay type: in vitro ADME; conditions: 10 μM, 37° C., after 2 h incubation
# Procedure: as §2
# 293T = 293T relative cell viability; conditions: day 3, 10 μM
# T2 sequence (Q83883 1101-1281): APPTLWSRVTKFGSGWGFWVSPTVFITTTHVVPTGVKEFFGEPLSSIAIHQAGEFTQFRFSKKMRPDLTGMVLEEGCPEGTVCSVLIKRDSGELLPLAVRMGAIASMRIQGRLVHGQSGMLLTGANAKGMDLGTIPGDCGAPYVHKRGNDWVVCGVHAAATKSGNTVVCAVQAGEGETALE
compound,measurement,setting,value
"COc1cc(-c2cccc3[nH]ncc23)cc(C=O)c1OCC(=O)N(C)C [CDD-1713, 2-(2-formyl-4-(1H-indazol-4-yl)-6-methoxyphenoxy)-N,N-dimethylacetamide]","Human Cathepsin B, Fractional Remaining Activity",Human Cathepsin B,0.97
same,Ki,"[1]; 25 nM enzyme, 15 μM fluorescent peptide, Morrison equation, Inactive = less than 50% inhibition at 25 μM compound, read-out: M^pro Ki",64.8 ± 4.9 nM
same,Ki,"[1]; Morrison equation, read-out: apparent Ki against M^pro",64.8 nM
same,Ki,"[1]; Table 5, read-out: Ki,app",64.8 nM
same,Ki,"[1]; read-out: Ki, app towards SARS-CoV-2 M^pro, athentic termini, authentic termini",64.8 nM
same,ΔTm of HOVPro-Gi.1 at 50 μM compound conc.,HOVPro-Gi.1,−0.09 °C
same,HLM t1/2,[2]; Table 4,15.3 min
same,microsomal CLint at 2 μM,"[2]; human, liver microsomes",90.6 µL/min/mg
same,metabolic stability in human liver microsomes (in words),"[2]; human, microsomes",metabolically labile
same,MLM t1/2,[3]; Table 4,8.4 min
same,microsomal CLint at 2 μM,"[3]; mouse, liver microsomes",147 µL/min/mg
same,metabolic stability in mouse liver microsomes (in words),"[3]; mouse, microsomes",metabolically labile
same,cytotoxicity in HepG2 cells (in words),HepG2 cells [4]; 100 μM,no obvious cytotoxicity
same,IC50,"HepG2 cells [4]; Homo sapiens, HepG2, 24 h, read-out: HepG2 cell viability IC50",> 100000 nM
same,solubility,[5],157 µM
same,stabilization of M^pro in thermal shift assay (in words),[6],stabilized; also recorded: concentration-dependent stabilization
same,ΔTm of Mpro at 50 μM compound conc.,"[6]; 50 μM compound, […]",2.99 °C
same,compound remaining in human plasma,[7],80%
same,ΔTm of HOVPro-Gii.4 at 50 μM compound conc.,HOVPro-Gii.4,−0.73 °C
same,cell permeability in HepG2 uptake assay (in words),HepG2 cells [8],moderate cell permeability
same,compound remaining in mouse plasma,[9],80%
same,293T day 3 relative cell viability (% inhibition at 10 μM),293T,None
